Source: patent publication US11470844B2, “Vespidae wasp repellent” (KINP CO., LTD, priority 2015, dated 2022)

Columns and labels:
[1] = test system: Vespa mandarinia worker; assay: Spray on Vespa mandarinia worker collecting sawthorn oak sap; assay type: in vivo, Vespa mandarinia japonica Radoszkowski; details: 10 workers; for behavior of workers after spraying: immediately started flapping, same time or a few seconds later; for Number of worker Effective / Number of worker No response: sprayed one time, observed up to 1 minute
Procedure: The experiment was conducted on a Vespa mandarinia japonica Radoszkowski worker which flew to a sawthorn oak tree bleeding sap and which collected the sap in Kagawa Prefecture Kinbuchi Forest Park in Takamatsu City Kagawa Prefecture from June to October, 2014 and from June to July, 2015.
Specifically, 100 mL of distilled water was enclosed in a plastic sprayer having a volume of 200 mL to be used as a control sprayer, and 100 mL of benzyl alcohol was enclosed in the same material and the same volume sprayer to be used as a test liquid sprayer. First, distilled water was sprayed one time to one Vespa mandarinia worker which was collecting sap at a sap bleeding part of a trunk of a sawthorn oak tree by using a control sprayer. […] Then, benzyl alcohol was sprayed one time by using a test liquid sprayer. Next, the workers were observed up to 1 minute. With respect to 2-phenylethanol, 3-phenylpropanol, 1-phenyl-2-prpanol and benzyl acetate, the spray test to a Vespa mandarinia worker collecting a sawthorn oak sap was conducted in the same condition.

[2] = test system: Apis mellifera worker; details: in vivo
Procedure: The experiment involving a Apis mellifera worker which was sucking nectar from a flower of Abelia planted at a bank of Noda pond located at Fuseishi-cho, Takamatsu City, Kagawa Prefecture was conducted on Jul. 22 to 24, 2015.
With respect to the experimental condition, first, distilled water was sprayed once on the worker which was sucking nectar or moving from a flower to a flower by using a sprayer, and then the inventors observed the behavior for 30 seconds. Next, benzyl alcohol, 2-phenylethanol or benzyl acetate was sprayed once on the same worker by using the sprayer having the same mass and the same volume, and then the inventors observed the behavior up to 30 seconds. The test liquid was judged to be “effective” in the case where the Apis mellifera worker on which the test liquid was sprayed did different action than normal activity to visit a flower during the observation time.

Number of worker Effective [2]	Number of worker No response [2]	SMILES	behavior of workers after spraying [1]	Number of worker Effective [1]	Number of worker No response [1]
–	–	CC(O)Cc1ccccc1 (centres unmarked) [1-Phenyl-2-propanol, 1-phenyl-2-propanol]	flew away from the sap bleeding part	10/10	0/10
–	–	OCCCc1ccccc1 [3-Phenylpropanol, 3-phenylpropanol]	flew away from the sap bleeding part	10/10	0/10
0/10	10/10	CC(=O)OCc1ccccc1 [Benzyl acetate, benzyl acetate]	flew away from the sap bleeding part	10/10	0/10
